Laboratory results as given in patent US9145351B2, “Azole derivatives, methods for producing the same, intermediate thereof, agro-horticultural agents” (KUREHA CORPORATION, priority 2009, dated 2015).

How the values were obtained:
Format in all cases: cell-based
[1] = test system: Phaeosphaeria nodorum; test: Plate medium fungicidal assay, wheat Septoria nodorum blotch P.n (Experimental Example 5); conditions: for inhibition at 5 µg/mL / inhibition at 50 µg/mL: Parastagonospora nodorum, read-out: growth inhibition grade P.n
Method in brief: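 Compound in DMSO mixed into PDA plate medium at 50 mg/L and 5 mg/L; 4 mm mycelial plug of pre-cultured fungus inoculated onto plate. Colony diameter compared with untreated plate, % mycelial growth inhibition = 100(dc−dt)/dc, scored in 5 grades.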

[2] = test system: Pseudocercoporella herpotrichoides; test: Plate medium fungicidal assay, wheat eye spot P.h (Experimental Example 5); conditions: for inhibition at 5 µg/mL / inhibition at 50 µg/mL: read-out: growth inhibition grade P.h
Method in brief: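 Compound in DMSO mixed into PDA agar for plates at 50 mg/L and 5 mg/L, inoculated with a 4 mm mycelial plug of Pseudocercosporella herpotrichoides. Colony diameter compared with untreated plates: % mycelial growth inhibition = 100(dc−dt)/dc, scored on a 5-grade scale.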

[3] = test system: Fusarium graminearum; test: microbe, parasite or virus in culture; conditions: for inhibition at 5 µg/mL / inhibition at 50 µg/mL: Fusarium graminearum, read-out: growth inhibition grade F.g
[4] = test system: Pyricularia oryzae; test: microbe, parasite or virus in culture; conditions: for inhibition at 5 µg/mL / inhibition at 50 µg/mL: Pyricularia oryzae, read-out: growth inhibition grade P.o
[5] = test system: Giberella fujikuroi; test: Plate medium fungicidal assay, rice bakanae disease G.f (Experimental Example 5); conditions: for inhibition at 5 µg/mL / inhibition at 50 µg/mL: read-out: growth inhibition grade G.f
Method in brief: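 Gibberella fujikuroi mycelial plugs (4 mm) placed on PDA plates containing compound at 50 mg/L and 5 mg/L, added from DMSO solution. Colony diameter compared with untreated plates as % inhibition = 100(dc−dt)/dc, then scored in 5 grades.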

[6] = test system: Fusarium oxysporum; test: Plate medium fungicidal assay, cucumber fusarium wilt F.c (Experimental Example 5); conditions: for inhibition at 5 µg/mL / inhibition at 50 µg/mL: Fusarium oxysporum, read-out: growth inhibition grade F.c
Method in brief: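 Compound in DMSO mixed into PDA agar to give plates at 50 mg/L and 5 mg/L, then inoculated with 4 mm mycelial plug. Colony diameter compared with untreated plate as % mycelial growth inhibition, R=100(dc−dt)/dc, then scored on a 5-grade scale.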

[7] = test system: Rhynchosporium secalis; test: Plate medium fungicidal assay, barley leaf blotch R.sec (Experimental Example 5); conditions: for inhibition at 5 µg/mL / inhibition at 50 µg/mL: Rhynchosporium secalis, read-out: growth inhibition grade R.sec
Method in brief: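 Compound in DMSO mixed into PDA plate medium at 50 mg/L and 5 mg/L; 4 mm mycelial plug of the fungus inoculated. Colony diameter compared with untreated plates gives % mycelial growth inhibition R=100(dc−dt)/dc, scored on a 5-grade scale.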

[8] = plate medium containing compound at 5 mg/L
[9] = plate medium containing compound at 50 mg/L

SMILES	inhibition at 5 µg/mL ([1]; plate medium, 5 mg/L) [%]	inhibition at 50 µg/mL ([1]; plate medium, 50 mg/L) [%]	inhibition at 5 µg/mL ([2]; plate medium, 5 mg/L) [%]	inhibition at 50 µg/mL ([2]; plate medium, 50 mg/L) [%]	inhibition at 5 µg/mL [3] [%]	inhibition at 50 µg/mL [3] [%]	inhibition at 5 µg/mL [4] [%]	inhibition at 50 µg/mL [4] [%]	inhibition at 5 µg/mL ([5]; plate medium, 5 mg/L) [%]	inhibition at 50 µg/mL ([5]; plate medium, 50 mg/L) [%]	inhibition at 5 µg/mL ([6]; plate medium, 5 mg/L) [%]	inhibition at 50 µg/mL ([6]; plate medium, 50 mg/L) [%]	inhibition at 5 µg/mL ([7]; plate medium, 5 mg/L) [%]	inhibition at 50 µg/mL ([7]; plate medium, 50 mg/L) [%]	further results
C[C@@]1(CCl)CC[C@@H](Cc2cccc(Cl)c2)[C@]1(O)Cn1cncn1 (relative stereo) [Compound I-174]	–	–	–	–	–	–	–	–	–	–	–	–	–	–	Growth inhibition grade, P.n ([1]; plate medium, 5 mg/L): 5 (% Mycerial growth inhibition of 80% or higher); Growth inhibition grade, P.n ([1]; plate medium, 50 mg/L): 5 (% Mycerial growth inhibition of 80% or higher); Growth inhibition grade, P.h ([2]; plate medium, 5 mg/L): 5 (% Mycerial growth inhibition of 80% or higher); Growth inhibition grade, P.h ([2]; plate medium, 50 mg/L): 5 (% Mycerial growth inhibition of 80% or higher); Growth inhibition grade, F.g ([3]; plate medium, 5 mg/L): 5 (% Mycerial growth inhibition of 80% or higher); Growth inhibition grade, F.g ([3]; plate medium, 50 mg/L): 5 (% Mycerial growth inhibition of 80% or higher); Growth inhibition grade, P.o ([4]; plate medium, 5 mg/L): 5 (% Mycerial growth inhibition of 80% or higher); Growth inhibition grade, P.o ([4]; plate medium, 50 mg/L): 5 (% Mycerial growth inhibition of 80% or higher); Growth inhibition grade, G.f ([5]; plate medium, 5 mg/L): 5 (% Mycerial growth inhibition of 80% or higher); Growth inhibition grade, G.f ([5]; plate medium, 50 mg/L): 5 (% Mycerial growth inhibition of 80% or higher); Growth inhibition grade, F.c ([6]; plate medium, 5 mg/L): 5 (% Mycerial growth inhibition of 80% or higher); Growth inhibition grade, F.c ([6]; plate medium, 50 mg/L): 5 (% Mycerial growth inhibition of 80% or higher); Growth inhibition grade, R.sec ([7]; plate medium, 5 mg/L): 5 (% Mycerial growth inhibition of 80% or higher); Growth inhibition grade, R.sec ([7]; plate medium, 50 mg/L): 5 (% Mycerial growth inhibition of 80% or higher)
Cc1ccc(C[C@@H]2CC[C@](C)(CCl)[C@@]2(O)Cn2cncn2)cc1 (relative stereo) [Compound I-80]	–	–	–	–	–	–	–	–	–	–	–	–	–	–	Growth inhibition grade, P.n [1, 8]: 5 (% Mycerial growth inhibition of 80% or higher); Growth inhibition grade, P.n [1, 9]: 5 (% Mycerial growth inhibition of 80% or higher); Growth inhibition grade, P.h [2, 8]: 5 (% Mycerial growth inhibition of 80% or higher); Growth inhibition grade, P.h [2, 9]: 5 (% Mycerial growth inhibition of 80% or higher); Growth inhibition grade, F.g [3, 8]: 5 (% Mycerial growth inhibition of 80% or higher); Growth inhibition grade, F.g [3, 9]: 5 (% Mycerial growth inhibition of 80% or higher); Growth inhibition grade, P.o [4, 8]: 5 (% Mycerial growth inhibition of 80% or higher); Growth inhibition grade, P.o [4, 9]: 5 (% Mycerial growth inhibition of 80% or higher); Growth inhibition grade, G.f [5, 8]: 5 (% Mycerial growth inhibition of 80% or higher); Growth inhibition grade, G.f [5, 9]: 5 (% Mycerial growth inhibition of 80% or higher); Growth inhibition grade, F.c [6, 8]: 5 (% Mycerial growth inhibition of 80% or higher); Growth inhibition grade, F.c [6, 9]: 5 (% Mycerial growth inhibition of 80% or higher); Growth inhibition grade, R.sec [7, 8]: 5 (% Mycerial growth inhibition of 80% or higher); Growth inhibition grade, R.sec [7, 9]: 5 (% Mycerial growth inhibition of 80% or higher)
C[C@@]1(CCl)CC[C@H](Cc2ccc(Cl)cc2)[C@]1(O)Cn1cncn1 (racemic) [Compound I-401, (1RS,2RS,5RS)-5-(4-chlorobenzyl)-2-chloromethyl-2-methyl-1-[1,2,4]triazol-1-ylmethylcyclopentanol]	> 80	> 80	> 80	> 80	> 80	> 80	> 80	> 80	> 80	> 80	> 80	> 80	> 80	> 80	–
C[C@]1(CBr)CC[C@@H](Cc2ccccc2)[C@]1(O)Cn1cncn1 (racemic) [Compound I-602, (1RS,2SR,5SR)-2-bromomethyl-5-benzyl-2-methyl-1-(1H-1,2,4-triazol-1-ylmethyl)cyclopentanol]	40 to 60	> 80	40 to 60	> 80	> 80	> 80	> 80	> 80	> 80	> 80	> 80	> 80	> 80	> 80	–
